Earlier results in EP4555997A1, “WATER-SOLUBLE COMPOSITION COMPRISING UROLITHIN” (Science4Beauty Sp. z o.o., priority 2023, dated 2025).

Conditions: HPLC-determined, water at 30° C

solubility in water: less than 0.01 g/L
Structure (SMILES): O=c1oc2cc(O)ccc2c2ccc(O)cc12 [UroA, 3,8-dihydroxy-6H-benzo[c]chromen-6-one]
